Reference: ChEMBL document CHEMBL1141619, “Discovery of novel inhibitors of 11beta-hydroxysteroid dehydrogenase type 1 by docking and pharmacophore modeling” (Bioorg Med Chem Lett, 2008)

Tests used:
[1] = molecular target: 11-beta-hydroxysteroid dehydrogenase 1 (Mus musculus, UniProt P50172); assay: Inhibition of mouse 11beta-HSD1
[2] = molecular target: T1, 11-beta-hydroxysteroid dehydrogenase type 2 (Mus musculus) (UniProt P51661); assay: Inhibition of mouse 11beta-HSD2 at 10 uM
T1 sequence (whole entry): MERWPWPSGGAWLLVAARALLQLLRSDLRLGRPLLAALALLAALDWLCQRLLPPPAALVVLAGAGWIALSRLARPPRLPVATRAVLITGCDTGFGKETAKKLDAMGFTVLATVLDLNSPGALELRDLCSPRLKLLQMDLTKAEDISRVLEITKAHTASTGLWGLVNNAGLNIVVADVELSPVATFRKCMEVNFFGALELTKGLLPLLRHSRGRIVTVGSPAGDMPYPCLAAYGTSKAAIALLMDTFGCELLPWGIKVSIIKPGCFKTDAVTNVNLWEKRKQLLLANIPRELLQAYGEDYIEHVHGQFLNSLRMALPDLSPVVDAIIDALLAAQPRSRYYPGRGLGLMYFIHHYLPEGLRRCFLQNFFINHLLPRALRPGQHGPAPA

[3] = molecular target: 11-beta-hydroxysteroid dehydrogenase 1 (Mus musculus) (UniProt P50172); assay: Inhibition of mouse 11beta-HSD1 at 10 uM
11-beta-hydroxysteroid dehydrogenase 1 (Mus musculus), sequence (P50172 whole entry, looked up): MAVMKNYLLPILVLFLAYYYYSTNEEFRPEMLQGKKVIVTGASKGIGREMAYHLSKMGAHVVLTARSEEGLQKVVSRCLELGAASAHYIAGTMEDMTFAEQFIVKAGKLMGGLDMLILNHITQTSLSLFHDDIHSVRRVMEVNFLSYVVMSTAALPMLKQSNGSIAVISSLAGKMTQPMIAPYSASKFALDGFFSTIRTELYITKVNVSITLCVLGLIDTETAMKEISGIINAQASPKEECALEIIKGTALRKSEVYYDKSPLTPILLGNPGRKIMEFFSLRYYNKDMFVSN

11-beta-hydroxysteroid dehydrogenase 1, sequence (P50172 whole entry): as the sequence (P50172 whole entry, looked up) above

SMILES | IC50 [1] [µM] | inhibition [2] [%] | inhibition [3] [%]
Cc1cc(NS(=O)(=O)c2ccc(NC(=O)c3ccc(C(=O)C(=O)c4ccccc4)cc3)cc2)nc(C)n1 | 0.48 | 9.1 | –
O=C(CN1C(=O)C2C3c4ccccc4C(c4ccccc43)C2C1=O)Nc1cccc(Cl)c1 (configuration not stated) | 12.5 | 2.2 | –
Cc1ccc(S(=O)(=O)N(CC(=O)N2CCCCCC2)c2cc(Cl)ccc2C)cc1 | 6.1 | 0.8 | –
O=C(CSc1nc2ccc(NC(=O)c3ccccc3Br)cc2s1)NCCc1ccccc1 | 2.09 | 0 | –
Cc1ccc(C(=O)COC(=O)C(Cc2ccccc2)N2C(=O)c3ccccc3C2=O)cc1 (configuration not stated) | – | 3.4 | 60
CC(C)COC(=O)c1ccc(NC(=O)c2ccc3c(c2)-c2ccccc2C3=O)cc1 | 3.6 | 3.7 | –
